# Values of other authors in patent US6077537A (Warner-Lambert Company, priority 1998, dated 2000).
# Settings: relative to parent compound
smiles,measurement,value
Cc1ccc(C(=CCN2CCCC2)c2cccc(CCC(=O)O)n2)cc1 [propionic acid analogue of acrivastine],plasma concentration of principal active metabolite,well below those of parent compound
